The record followed here is patent US11434492B2, “Ribosome-mediated incorporation of peptides and peptidomimetics” (Arizona Board of Regents on behalf of Arizona State …, priority 2015, dated 2022).

The test system of one test is wild-type ribosomes. Nature of the test: In vitro translation: suppression of UAG codon at position 10 of DHFR mRNA, S-30 preparation having wild-type ribosomes. Type of test: biochemical, E. coli. To be noted: compared to wild-type DHFR synthesis. As for the experimental part:
(§1) In vitro Protein Translation. Protein translation reactions were carried out in 12-2000 μL of incubation mixture containing 0.4 μL/μL of S-30 system, 100 ng/μL of plasmid, 35 mM Tris acetate, pH 7.4, 190 mM potassium glutamate, 30 mM ammonium acetate, 2 mM DTT, 0.2 mg/mL total E. coli tRNA, 3.5% PEG 6000, 20 μg/mL folinic acid, 20 mM ATP and GTP, 5 mM CTP and UTP, 100 μM amino acids mixture, 0.5 μCi/μL of ^35S-methionine for analytical purposes only and 1 μg/mL rifampicin. In the case of plasmids having a gene with a TAG codon, a suppressor tRNA was added to a concentration of 0.8 μg/μL. Reactions were carried out at 37° C. for 1 h (for 12 μL reaction mixtures) to 1.5 h (for 2000 μL reaction mixtures) and terminated by chilling on ice. Aliquots from in vitro translation mixtures were analyzed by SDS-PAGE followed by quantification of the radioactive bands by phosphorimager analysis.
Incorporation of Glycylphenylalanine (2) Using the Wild-Type Ribosome. The wild-type ribosomes synthesize polypeptide chains by incorporating one α-L-amino acid at a time via one monoacylated tRNA for each corresponding codon in the mRNA transcript.^6 Ribosome mediated sequential incorporation of two amino acids for one codon using bisacylated tRNAs has not been reported to date. […]

The test system of test [1] is modified ribosomes (23S rRNA modified). Nature of the test: In vitro translation: suppression of UAG codon at position 10 of DHFR mRNA, S-30 systems having modified ribosomes. It is filed as biochemical, E. coli. Particulars: for Suppression efficiency in different S-30 systems, having modified ribosomes (%): position 10 of E. coli DHFR, relative to wild-type DHFR = 100. As for the experimental part: Preparation of Aminoacyl-tRNACUAs. The activation of suppressor tRNACUAs was carried out as described previously.^4,5 Briefly, 100-μL reaction mixture of 100 mM Na Hepes, pH 7.5, contained 1.0 mM ATP, 15 mM MgCl2, 100 μg of suppressor tRNACUA-COH, 0.5 A260 unit of N-pentenoyl-protected aminoacyl-pdCpA, 15% DMSO, and 100 units of T4 RNA ligase. The reaction mixture was incubated at 37° C. for 1.5 h and quenched by the addition of 0.1 vol of 3 M NaOAc, pH 5.2. The N-protected aminoacylated tRNA was precipitated with 3 vol of cold ethanol. The efficiency of ligation was estimated by 8% polyarylamide-7 M urea gel electrophoresis (pH 5.0).
The N-pentenoyl-protected aminoacyl-tRNACUAs were deprotected by treatment with 5 mM aqueous […] at 25° C. for 15 min. The solution was centrifuged, and the supernatant was adjusted to 0.3 M NaOAc and treated with 3 vol of cold ethanol to precipitate the aminoacylated tRNA. The tRNA pellet was collected by centrifugation, washed with 70% aq EtOH, air dried and dissolved in 20 μL of RNase free water.
Preparation of S-30 Extracts from Cells Having Modified Ribosomes. Aliquots (5-10 μL) from liquid stocks of E. coli BL-21 (DE-3) cells, harboring plasmids with a wild-type or modified rrnB gene, were placed on LB agar supplemented with 100 µg/mL of ampicillin and grown at 37° C. for 16-18 h. One colony was picked from each agar plate and transferred into 3 mL of LB medium supplemented with 100 μg/mL of ampicillin and 0.5 mM IPTG.
as §1
Incorporation of Dipeptides 2, 3 and 4 into DHFR Using the Modified Ribosomes. Initially, glycylphenylalanine (2) was chosen to screen the selected modified ribosomes for their ability to incorporate a dipeptide into DHFR. It was anticipated that minimal steric hindrance and more flexibility at the N-terminus of the dipeptide (a glycine residue) would enable optimal positioning of the amine for a nucleophilic attack in the PTC of the modified ribosomes. A modified DHFR construct, having a TAG codon in position 10 (pETDH10 plasmid) was used for the incorporation of glycylphenylalanine.
The suppression efficiencies were expressed relative to the wild-type DHFR synthesis. As a negative control, wild-type DHFR synthesis in the presence of nonacylated-tRNACUA was measured for each experiment. The amounts of DHFR produced were quantified with a phosphoimager, which monitored the incorporation of ^35S-methionine into DHFR. Using glycylphenylalanyl-tRNACUA, S-30 preparations having the modified ribosomes from clone groups 1, 2, 3 and 9 produced full length DHFR in ˜9% yields relative to the wild-type DHFR synthesis (Table 3). The modified ribosomes from clone groups 4-8 incorporated glycylphenylalanine (2) with low yields (˜2-4%). For dipeptide 2, best incorporation yields (up to 12%) were obtained by S-30 system having modified ribosomes from clone group 9 (2057AGUGAGA2063 and 2502AUCCGA2507).

In test [2] the test system is modified ribosomes from clone 010326R6. Nature of the test: In vitro translation: suppression of TAG codon at position 66 of GFP (pETGFP66), S-30 from clone 010326R6. Type of test: biochemical, Escherichia coli. As for the experimental part: as §1
The free amino acids both have λex in the range 296-302 nm but the λem of 7 is somewhat red-shifted compared to that of 6. […] As a negative control, wild-type GFP synthesis from the modified mRNA in the presence of nonacylated tRNACUA was measured for each experiment. The amounts of GFP produced were quantified with a phosphoimager, which monitored the incorporation of ^35S-methionine into proteins. […]

The subject of test [3] is E. coli clones having mutations in two regions of the PTC in the 23S rRNA (modified ribosomes). Nature of the test: Inhibition of cell growth by dipeptidyl-puromycin aminonucleoside 1 (selection of modified ribosomes). It is filed as cell-based. To be noted: 100 μg/mL 1. How it is done:
Selection of Modified Ribosomes using Dipeptidyl-puromycin Aminonucleoside The selection experiments were carried on in a fashion similar to that described previously. (1) Briefly, library from 419 clones, having mutations in two regions of the PTC in the 23S rRNA (2057-2063 and 2496-2501 or 2502-2507) and organized in five 96 well plates (“master plates”), were used for selection of variants with modified ribosome. Three new plates were prepared for each “master plate” by transferring 2 μL of culture from each well of the master plate to the corresponding well of new plate and 98 μL assay solution was added to each well.
A solution without any puromycin derivative was used for control plate. All plates were incubated at 37° C. for 16-18 h in a thermostated shaker, and extent of cell growth was estimated by measuring the optical density at 600 nm. Inhibition of cell growth by 1 was estimated as described in previously. Clones with inhibition value more than 50% were taken for verification. […] Plates were incubated at 37° C. for 16-18 h in a thermostated shaker, extent of cell growth was estimated by measuring the optical density at 600 nm and IC50 data was calculated for each culture.
It was anticipated that the ribosomes of those clones which show sensitivity for 1 would be more likely to accommodate dipeptides or dipeptidomimetics in the PTC during peptide synthesis. […] Plasmids from these clones were isolated and sequenced.

Several values for one entry are separate records, joined by “and”; a condition that tells them apart may be missing. Equal entries are not always repeated. Peptide text beside a SMILES is read from it.

As to `NCC(=O)N[C@@H](Cc1ccccc1)C(=O)O` [dipeptide 2, glycylphenylalanine] (H-Gly-Phe-OH), the suppression efficiency in the test on wild-type ribosomes was roughly 2%. In addition, the “Suppression efficiency in different S-30 systems, having modified ribosomes (%)” value in test [1] (clone group 1) is ~9% and 8.4 ± 1.6%; in test [1] (clone group 2) it was ~8% and 9.5 ± 0.5%; in test [1] (clone group 3) it was 9% and 8.6 ± 1.5%; in test [1] (clone group 4), 3.1 ± 0.2%; in test [1] (clone group 5), 4.5 ± 0.7%; in test [1] (clone group 6), 3.5%. The figures for the “Suppression efficiency in different S-30 systems, having modified ribosomes (%)” value in test [1] (clone group 7) and in test [1] (clone group 8) were 2.1 ± 0.1% and 2.2%, respectively. Besides, in test [1] (clone groups 1, 2, 3 and 9, position 10 of DHFR), the “full length DHFR yield relative to the wild-type DHFR synthesis” value is roughly 9%. For the same compound, the “incorporation yield relative to the wild-type DHFR synthesis” value in test [1] (clone groups 4-8, position 10 of DHFR) was 2-4%.
On to `N[C@@H](Cc1ccccc1)C(=O)NCC(=O)O` [dipeptide 3, phenylalanylglycine] (H-Phe-Gly-OH), for which the “Suppression efficiency in different S-30 systems, having modified ribosomes (%)” value in test [1] (clone group 1) is ~14% and 13.9 ± 1.7%; in test [1] (clone group 2) it was ~12% and 10.6 ± 0.5%; in test [1] (clone group 3) it was 10% and 12.7 ± 2.5%; in test [1] (clone group 9), ~13% and 13.3 ± 2.5%.
Take `COc1ccc(-c2sc(CN)nc2C(=O)O)cc1` [dipeptidomimetic 7]: the “suppression yield (full length GFP) relative to wild-type GFP synthesis” value in test [2] is on record as roughly 3.5%.
Consider `COc1ccc(C[C@H](N)C(=O)NCC(=O)N[C@H]2[C@@H](O)[C@H](n3cnc4c(N(C)C)ncnc43)O[C@@H]2CO)cc1` [puromycin derivative 1, 9-[3″-Deoxy-3″-(O-methyl-(S)-tyrosylglycyl)-β-D-ribofuranosyl]-6-(N,N″ dimethylamino)purine], for which the “Inhibition by Puromycin Derivative 1 (%)” value in test [3] (Wild-type ribosomes) is less than 1%; in test [3] (clone 010309R3 (clone group 1)), 63.2%; in test [3] (clone 010310R1 (clone group 4)), 52.9%; in test [3] (clone 010310R4 (clone group 2)) it was 52.9%; in test [3] (clone 010322 (clone group 1)), 77%; in test [3] (clone 010326R1 (clone group 5)), 50.4%. The “Inhibition by Puromycin Derivative 1 (%)” value in test [3] (clone 010326R5 (clone group 3)) stood at 50.4%; in test [3] (clone 010326R6 (clone group 1)) it was 50.4%; in test [3] (clone 010328R2 (clone group 5)), 77%; in test [3] (clone 010328R4 (clone group 1)), 61%; in test [3] (clone 040322 (clone group 6)), 54%; in test [3] (clone 040329 (clone group 7)), 54%. For the same compound, the “Inhibition by Puromycin Derivative 1 (%)” value stood at 56% in test [3] (clone 040338 (clone group 8)) and 51% in test [3] (clone 080337 (clone group 9)).
For the compound phenylalanylphenylalanyl [dipeptide 4], the “Suppression efficiency in different S-30 systems, having modified ribosomes (%)” value in test [1] (clone group 1) was roughly 4%.
